Article PMC7731379, “Withanolide-Type Steroids from Withania aristata as Potential Anti-Leukemic Agents” (Molecules, 2020)
Like-named read-outs stand apart in the source and are kept apart here.

What was measured:
in vitro = details: African green monkey
Method: (§1) HL-60 (human promyelocytic leukemia cell line) and Vero (African green monkey kidney) cell lines from American Type Culture Collection (ATCC-LGC) were each grown in Dulbecco’s modified Eagle’s medium (DMEM) with 4.5 g/L glucose (Sigma-Aldrich), supplemented with 10% fetal bovine serum (Gibco), 1% of a penicillin–streptomycin mixture (10.000 and 10 mg/mL, respectively), and 200 mM L-glutamine. Cells were maintained at 37 °C in 5% CO2 and 98% humidity.
(§2) Viable cells were assessed using the colorimetric MTT [3-(4,5-dimethylthiazol-2-yl)-2,5-diphenyl tetrazolium bromide reduction assay [49]. A cell suspension (1 × 10^4 /200 μL/well) in log-phase of growth seeded in DMEM, supplemented with 5% fetal bovine serum in microtiter well plates (96 wells, Iwaki, London, UK) were added to compounds predissolved in dimethylsulphoxide (DMSO) at different concentrations. After 48 h of incubation, 20 μL/well of the MTT solution (5 mg/mL in phosphate buffered saline, PBS) were added and plates incubated for 4 h at 37 °C. Subsequently, the medium/MTT solutions were removed carefully by aspiration and replaced with 150 μL/well of DMSO to dissolve the formazan crystals. Absorbance was measured in a microplate reader (Infinite M200, Tecan) at a wavelength of 550 nm. Solvent control cultures were considered 100% and percentage of viable treated cells were plotted against compound concentrations. The 50% cell viability value (IC50) was calculated from the curve. Each experiment was performed at least three times in triplicates. Data are given in arithmetic means ± SD. Selectivity ratio was defined as IC50 value for the tumoral cell line divided by IC50 value for the Vero cell line.

[1] = system: HL-60 (human promyelocytic leukemia cell line); experiment: MTT cell viability (antiproliferative) assay, HL-60; details: for IC50: mean ± SD of three independent experiments; for SI (selectivity index): Vero (IC50) on HL-60 (IC50)
Method: as §1, §2

[2] = system: Vero (African green monkey kidney) cell line; experiment: MTT cell viability assay, non-tumoral Vero cells; details: read-out: Cytotoxic activity IC50, Vero; MTT, 48 h incubation; mean ± SD of three independent experiments
Method: as §1, §2

[3] = system: HL-60 (human promyelocytic leukemia cell line); details: 48 h
Method: as §1, §2

[4] = MTT cell viability assay, non-tumoral Vero cells; details: African green monkey, Vero cells (African green monkey kidney, non-tumoral)
Method: as §1, §2

[5] = Homo sapiens, HL-60, 48 h, read-out: Cytotoxic activity IC50, HL 60, MTT, 48 h incubation
[6] = read-out: Cytotoxic activity IC50, HL 60, MTT, 48 h incubation
[7] = Cytotoxic activity IC50, Vero, MTT, 48 h incubation, mean ± SD of three independent experiments

Row | Compound | IC50 at 48 h (in vitro; Cytotoxic activity IC50, Vero) | IC50 [1, 5] | SI (selectivity index) [1] | other results
1 | CC1=C(CO)C(=O)OC(C(C)C2=CCC3C4CC=C5C(O)C=CC(=O)C5(C)C4CCC23C)C1 (stereo not drawn) [Compound 5, 4β,27-dihydroxy-1-oxo-witha-2,5,16,24-tetraenolide] | 6.4 ± 0.12 µM | 8.2 ± 0.09 µM | 0.8 | 
2 | CC(=O)OCC1=C(C)CC(C(C)C2CCC3C4CC5OC56C(O)C(O)CC(=O)C6(C)C4CCC23C)OC1=O (stereo not shown) [Compound 25, 27-O-acetyl-viscosalactone B] | 11.8 ± 0.1 µM | 1.5 ± 0.54 µM | 7.9 | fold more potent than its corresponding hydroxyl derivative 24 ([1]; HL-60 cytotoxic effect, versus 24): 26 fold
3 | CC1=C(CO)C(=O)OC(C(C)=C2C(O)CC3C4CC5OC56C(O)C=CC(=O)C6(C)C4CCC23C)C1 (stereo not drawn) [Compound 18, 5β,6β-epoxy-4β,16β,27-trihydroxy-1-oxo-witha-2,17(20),24-trienolide] | 34.7 ± 0.75 µM | 8.2 ± 0.43 µM | 4.2 | 
4 | 4β,16β,27-trihydroxy-1-oxo-witha-2,5,17(20),24-tetraenolide [Compound 9] |  |  | 1.7 | IC50 [2]: 25.7 ± 0.65 µM; IC50 [1, 6]: 14.8 ± 0.68 µM
5 | CC1=C(CO)C(=O)OC(C(C)C2CCC3C4CC(Cl)C5(O)C(O)C=CC(=O)C5(C)C4CCC23C)C1 (stereo not drawn) [Compound 27, 6α-chloro-5β-hydroxywithaferin A] | 7.8 ± 0.36 µM | 1.1 ± 0.2 µM | 7.1 | fold more potent than its corresponding hydroxyl derivative 26 ([1]; HL-60 cytotoxic effect, versus 26): 12 fold
6 | CC1=C(CO)C(=O)O[C@@H]([C@@H](C)C2=CC[C@H]3[C@@H]4C[C@H]5O[C@]56[C@@H](O)C=CC(=O)[C@]6(C)[C@H]4CC[C@]23C)C1 [Compound 19, witharistatin] |  | ≤ 0.5 µM | 3.8 | IC50 [3]: 0.5 ± 0.05 µM; IC50 at 48 h (in vitro): 1.9 ± 0.08 µM
7 | CC1=C(CO)C(=O)O[C@@H]([C@@H](C)[C@H]2CC[C@H]3[C@@H]4C[C@H]5O[C@]56[C@@H](O)[C@@H](O)CC(=O)[C@]6(C)[C@H]4CC[C@]23C)C1 [Compound 24, viscosalactone B] |  | > 40 µM |  | IC50 at 48 h [4, 7]: > 40 µM
8 | CC1=C(CO)C(=O)OC(C(C)C2(O)CCC3C4CC5OC56C(O)C=CC(=O)C6(C)C4CCC32C)C1 (stereo not drawn) [Compound 23, 5β,6β-epoxy-4β,17α,27-trihydroxy-1-oxo-witha-2,24-dienolide] | > 40 µM | 6.5 ± 0.55 µM | >6.2 | 
9 | 16β,27-dihydroxy-1,4-dioxo-witha-2,5,17(20),24-tetraenolide [Compound 11] |  |  | >1.4 | IC50 [2]: > 40 µM; IC50 [1, 6]: 27.8 ± 0.45 µM
10 | CC1=C(CO)C(=O)O[C@@H]([C@@H](C)[C@H]2CC[C@H]3[C@@H]4C[C@H]5O[C@]56[C@@H](O)C=CC(=O)[C@]6(C)[C@H]4CC[C@]23C)C1 [Compound 14, withaferin A] |  |  | 33.0 | IC50 at 48 h [4, 7]: 6.4 ± 0.21 µM; IC50 [1, 6]: 0.2 ± 0.02 µM; IC50 ([1]; read-out: Cytotoxic activity IC50, HL 60, MTT, 48 h incubation, listed as WA): ≤ 0.5 µM
11 | CC1=C(CO)C(=O)OC(C(C)C2CCC3C4CC(O)C5(C=O)C=CC(=O)C5(C)C4CCC23C)C1 (stereo not drawn) [Compound 28, 4β-formyl-6β,27-dihydroxy-1-oxo-witha-2,24-dienolide] |  | 30.5 ± 0.45 µM | >1.3 | IC50 at 48 h [4]: > 40 µM
12 | CC1=C(CO)C(=O)OC(C(C)C2CCC3C4CC(O)C56C=CC(OO5)C(=O)C6(C)C4CCC23C)C1 (stereo not drawn) [Compound 3, 6β,27-Dihydroxy-2α,5α-dioxan-1-oxo-witha-3,24-dien-26,22-olide] |  | 3.3 ± 0.45 µM | 4.9 | IC50 at 48 h [4, 7]: 16 ± 0.73 µM
13 | CC1=C(CO)C(=O)OC(C(C)C2=CCC3C4CC(O)C56C=CC(OO5)C(=O)C6(C)C4CCC23C)C1 (stereo not drawn) [Compound 4, 6β,27-Dihydroxy-2α,5α-dioxan-1-oxo-witha-3,16,24-trien-26,22-olide] |  | 6.2 ± 0.1 µM | 5.1 | IC50 at 48 h [4, 7]: 31.6 ± 0.08 µM
14 | CC1=C(C)C(=O)OC(C(C)C2=CCC3C4CC=C5C(O)C=CC(=O)C5(C)C4CCC23C)C1 (stereo not drawn) [Compound 6, 4β-hydroxy-1-oxo-witha-2,5,16,24-tetraenolide] | 11.5 ± 0.09 µM | 7 ± 0.55 µM | 1.6 | 
15 | CC1=C(C)C(=O)OC(C(C)C2=CCC3C4CC5OC56C(O)C=CC(=O)C6(C)C4CCC23C)C1 (stereo not shown) [Compound 20, 27-deoxy-16-en-withaferin A] | 10 ± 0.61 µM | 4.6 ± 0.35 µM | 2.2 | 
16 | CC1=C(CO)C(=O)OC(C(C)C2CCC3C4CC(O)C5(C=O)CCC(=O)C5(C)C4CCC23C)C1 (stereo not drawn) [Compound 29, 4β-formyl-6β,27-dihydroxy-1-oxo-witha-24-enolide] |  | 19.2 ± 0.84 µM | >2.1 | IC50 at 48 h [4, 7]: > 40 µM
17 | CC1=C(C)C(=O)OC(C(C)C2CCC3C4CC5OC56C(O)C=CC(=O)C6(C)C4CCC23C)C1 (stereo not drawn) [Compound 15, 5β,6β-epoxy-4β-hydroxy-1-oxo-witha-2,24-dienolide] | 4.6 ± 0.09 µM | ≤ 0.5 µM |  | IC50 [3]: 0.5 ± 0.07 µM
18 | 4β,16β-dihydroxy-1-oxo-witha-2,5,17(20),24-tetraenolide [Compound 10] |  |  | >2.4 | IC50 [2]: > 40 µM; IC50 [1, 6]: 16.8 ± 0.75 µM
19 | CC1=C(CO)C(=O)OC(C(C)C2CCC3C4CC(O)C5(O)C(O)C=CC(=O)C5(C)C4CCC23C)C1 (stereo not shown) [Compound 26, 2,3-dehydrosomnifericin] | > 40 µM | 13.4 ± 0.85 µM | >3.0 | 
20 | CC1=C(CO)C(=O)OC(C(C)C2CCC3C4CC5OC56C(=O)C=CC(=O)C6(C)C4CCC23C)C1 (stereo not shown) [Compound 22, 4-dehydro-withaferin A] | 16.9 ± 0.7 µM | 0.7 ± 0.09 µM | 24.1 | 
21 | CC1=C(CO)C(=O)OC(C(C)C2CCC3C4CC=C5C(O)C=CC(=O)C5(C)C4CCC23C)C1 (stereo not drawn) [Compound 7, 4β,27-dihydroxy-1-oxo-witha-2,5,24-trien olide] | > 40 µM | 15.7 ± 0.04 µM | >2.6 | 
22 | CC1=C(CO)C(=O)OC(C(C)C2=CCC3C4CC=C5C(=O)C=CC(=O)C5(C)C4CCC23C)C1 (stereo not shown) [Compound 8, 27-hydroxy-1,4-dioxo-witha-2,5,16,24-tetraenolide] | 15.5 ± 0.35 µM | 4.2 ± 0.25 µM | 3.7 | 
23 | CC1=C(CO)C(=O)OC(C(C)C2(O)CCC3C4CC(O)C56C=CC(OO5)C(=O)C6(C)C4CCC32C)C1 (stereo not drawn) [Compound 1, 6β,17α,27-Trihydroxy-2α,5α-dioxan-1-oxo-witha-3,24-dien-26,22-olide] |  |  | >3.1 | IC50 at 48 h [4]: > 40 µM; IC50 [1, 6]: 12.8 ± 0.24 µM
24 | CC1=C(CO)C(=O)OC(C(C)C2(O)CCC3C4CC=C5C(O)C=CC(=O)C5(C)C4CCC32C)C1 (stereo not drawn) [Compound 12, 4α,17α,27-trihydroxy-1-oxo-witha-2,5,24-trienolide] | > 40 µM | 6.6 ± 0.14 µM | >6.1 | fold more potent than the β-disposition (13) ([1]; HL-60, versus 13): 2 fold
25 | CC1=C(C)C(=O)OC(C(C)C2CC=C3C4CC5OC56C(O)C=CC(=O)C6(C)C4CCC32C)C1 (stereo not drawn) [Compound 21, 5β,6β-epoxy-4β-hydroxy-1-oxo-22R-witha-2,14,24-trienolide] | 6.2 ± 0.11 µM | 0.9 ± 0.05 µM | 6.9 | 
26 | CC1=C(CO)C(=O)OC(C(C)C2(O)CCC3C4CC(O)C56C=CC(OO5)C(=O)C6(C)C4CCC32C)C1 (stereo not drawn) [Compound 2, 6β,17α,27-Trihydroxy-2β,5β-dioxan-1-oxo-witha-3,24-dien-26,22-olide] |  |  | >1.5 | IC50 [2]: > 40 µM; IC50 [1, 6]: 26.7 ± 0.6 µM
27 | COc1cc([C@@H]2c3cc4c(cc3[C@@H](O[C@@H]3O[C@@H]5CO[C@@H](C)O[C@H]5[C@H](O)[C@H]3O)[C@H]3COC(=O)[C@H]23)OCO4)cc(OC)c1O [Etoposide, reference compound] |  | 2.4 ± 0.1 µM | 8.2 | IC50 at 48 h [4, 7]: 19.5 ± 0.16 µM
28 | CC(=O)OCC1=C(C)CC(C(C)C2CCC3C4CC5OC56C(O)C=CC(=O)C6(C)C4CCC23C)OC1=O (stereo not shown) [Compound 16, 27-acetyl-withaferin A] | 5.7 ± 0.13 µM | ≤ 0.5 µM |  | IC50 [3]: 0.4 ± 0.06 µM
